In US12264155B2, “Compounds, pharmaceutical compositions, and methods of preparing compounds and of their use as ATR kinase inhibitors” (Repare Therapeutics Inc., priority 2018, dated 2025):

target: ATR/ATRIP (Homo sapiens (Human), UniProt Q13535); test: ATR/ATRIP enzymatic assay (AlphaScreen, phosphorylation of p53); settings: not given
Sequence (Q13535 whole entry): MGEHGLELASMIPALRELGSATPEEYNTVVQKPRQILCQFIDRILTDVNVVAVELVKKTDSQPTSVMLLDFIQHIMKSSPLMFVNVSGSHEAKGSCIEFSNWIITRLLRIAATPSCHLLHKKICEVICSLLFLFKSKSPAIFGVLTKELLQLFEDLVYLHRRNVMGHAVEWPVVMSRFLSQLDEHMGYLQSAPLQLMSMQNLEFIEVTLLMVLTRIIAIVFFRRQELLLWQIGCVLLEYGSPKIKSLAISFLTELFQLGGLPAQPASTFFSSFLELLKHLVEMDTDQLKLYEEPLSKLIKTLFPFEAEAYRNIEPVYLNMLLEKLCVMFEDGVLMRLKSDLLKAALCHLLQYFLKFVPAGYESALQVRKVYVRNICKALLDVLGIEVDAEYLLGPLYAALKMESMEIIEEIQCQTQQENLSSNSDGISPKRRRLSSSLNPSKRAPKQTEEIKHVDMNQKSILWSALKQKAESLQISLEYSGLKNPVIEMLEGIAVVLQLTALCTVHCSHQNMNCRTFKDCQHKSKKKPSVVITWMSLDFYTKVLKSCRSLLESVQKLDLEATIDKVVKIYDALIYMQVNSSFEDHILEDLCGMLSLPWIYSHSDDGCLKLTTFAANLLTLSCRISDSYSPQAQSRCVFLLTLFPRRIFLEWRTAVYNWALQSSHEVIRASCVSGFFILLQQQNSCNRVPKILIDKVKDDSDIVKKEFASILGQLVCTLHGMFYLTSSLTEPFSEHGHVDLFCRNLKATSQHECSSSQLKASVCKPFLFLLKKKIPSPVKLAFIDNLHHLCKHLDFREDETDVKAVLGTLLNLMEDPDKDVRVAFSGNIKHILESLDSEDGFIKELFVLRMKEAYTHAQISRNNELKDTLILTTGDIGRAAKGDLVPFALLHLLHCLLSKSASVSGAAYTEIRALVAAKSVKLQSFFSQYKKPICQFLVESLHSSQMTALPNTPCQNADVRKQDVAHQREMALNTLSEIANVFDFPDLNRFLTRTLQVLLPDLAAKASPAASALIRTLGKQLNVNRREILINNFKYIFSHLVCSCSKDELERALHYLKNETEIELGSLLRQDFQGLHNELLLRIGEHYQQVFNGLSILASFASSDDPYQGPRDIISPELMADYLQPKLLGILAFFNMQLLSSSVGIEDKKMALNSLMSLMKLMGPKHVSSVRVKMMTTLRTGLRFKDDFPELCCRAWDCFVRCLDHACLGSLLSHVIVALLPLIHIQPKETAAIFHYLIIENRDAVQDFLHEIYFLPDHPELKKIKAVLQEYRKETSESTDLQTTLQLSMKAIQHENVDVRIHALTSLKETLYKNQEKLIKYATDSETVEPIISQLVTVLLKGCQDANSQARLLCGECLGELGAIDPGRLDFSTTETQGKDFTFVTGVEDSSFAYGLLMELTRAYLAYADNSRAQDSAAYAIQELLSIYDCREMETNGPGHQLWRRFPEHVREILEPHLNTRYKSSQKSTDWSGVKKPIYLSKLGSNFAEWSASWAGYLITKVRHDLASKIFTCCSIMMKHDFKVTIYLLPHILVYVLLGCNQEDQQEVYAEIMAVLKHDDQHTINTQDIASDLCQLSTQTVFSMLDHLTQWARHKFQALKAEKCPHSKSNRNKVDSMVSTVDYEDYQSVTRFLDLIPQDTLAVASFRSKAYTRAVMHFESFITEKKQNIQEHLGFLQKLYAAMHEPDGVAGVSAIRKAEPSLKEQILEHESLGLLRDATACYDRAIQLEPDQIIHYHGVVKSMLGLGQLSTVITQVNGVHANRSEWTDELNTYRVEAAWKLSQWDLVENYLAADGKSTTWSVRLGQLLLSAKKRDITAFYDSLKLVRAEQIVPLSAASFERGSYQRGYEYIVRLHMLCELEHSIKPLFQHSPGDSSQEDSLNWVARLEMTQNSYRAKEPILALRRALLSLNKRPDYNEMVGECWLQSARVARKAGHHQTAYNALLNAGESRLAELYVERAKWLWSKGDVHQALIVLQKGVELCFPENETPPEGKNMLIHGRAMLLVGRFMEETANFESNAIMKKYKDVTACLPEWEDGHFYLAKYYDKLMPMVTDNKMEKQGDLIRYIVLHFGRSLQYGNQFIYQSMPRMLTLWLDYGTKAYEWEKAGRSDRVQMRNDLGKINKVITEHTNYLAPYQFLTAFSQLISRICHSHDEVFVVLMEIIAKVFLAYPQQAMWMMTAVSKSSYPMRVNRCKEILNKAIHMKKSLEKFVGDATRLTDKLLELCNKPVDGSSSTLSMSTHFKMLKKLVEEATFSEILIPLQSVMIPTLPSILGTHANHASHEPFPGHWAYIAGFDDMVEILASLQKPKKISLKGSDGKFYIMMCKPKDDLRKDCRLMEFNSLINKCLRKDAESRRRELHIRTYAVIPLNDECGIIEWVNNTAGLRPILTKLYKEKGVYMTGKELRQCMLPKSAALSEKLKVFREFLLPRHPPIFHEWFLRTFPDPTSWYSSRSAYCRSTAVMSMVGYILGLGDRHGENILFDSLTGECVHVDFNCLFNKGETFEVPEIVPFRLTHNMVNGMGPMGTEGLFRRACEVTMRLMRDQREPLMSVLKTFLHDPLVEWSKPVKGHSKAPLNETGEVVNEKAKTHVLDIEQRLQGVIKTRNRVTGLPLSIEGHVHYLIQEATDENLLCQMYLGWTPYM
Sequence (Q8WXE1 whole entry partner): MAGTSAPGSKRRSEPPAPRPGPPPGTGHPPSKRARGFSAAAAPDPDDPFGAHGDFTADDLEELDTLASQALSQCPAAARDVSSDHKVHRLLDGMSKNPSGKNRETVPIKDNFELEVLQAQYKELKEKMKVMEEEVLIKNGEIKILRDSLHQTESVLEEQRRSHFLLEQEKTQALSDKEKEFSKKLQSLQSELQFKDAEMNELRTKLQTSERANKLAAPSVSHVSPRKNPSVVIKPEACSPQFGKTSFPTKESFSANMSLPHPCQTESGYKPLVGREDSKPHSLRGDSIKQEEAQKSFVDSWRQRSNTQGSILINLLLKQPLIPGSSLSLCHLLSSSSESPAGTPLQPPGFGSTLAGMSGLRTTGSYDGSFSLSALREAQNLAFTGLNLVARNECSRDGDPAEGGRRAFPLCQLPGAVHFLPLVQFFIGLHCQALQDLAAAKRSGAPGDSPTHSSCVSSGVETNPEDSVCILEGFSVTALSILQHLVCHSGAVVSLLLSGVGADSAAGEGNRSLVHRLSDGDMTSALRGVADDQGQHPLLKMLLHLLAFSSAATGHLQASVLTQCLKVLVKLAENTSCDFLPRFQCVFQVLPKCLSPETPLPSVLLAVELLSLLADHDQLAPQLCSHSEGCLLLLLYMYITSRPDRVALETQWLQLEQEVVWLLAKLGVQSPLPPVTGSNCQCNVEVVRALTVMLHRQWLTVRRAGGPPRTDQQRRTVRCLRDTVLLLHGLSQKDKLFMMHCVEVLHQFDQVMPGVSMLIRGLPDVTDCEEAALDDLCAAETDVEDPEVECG

Row | IC50 [nM] | Compound
1 | 448 | C[C@@H]1COCCN1c1cc(C(C)(C)C#N)c2cnn(Cc3ccn[nH]3)c2n1 [Compound 66]

same assay, conditions: read-out: ATR IC50; recombinant ATR/ATRIP 0.63 nM, 25 nM GST-p53, 3 μM ATP, 1 hour room temperature

Row | IC50 [nM] | Compound
2 | 451 | C[C@@H]1COCCN1c1cc(-c2ccnn2C)c2ccn(-c3cc[nH]n3)c2n1 [Compound 34]
3 | > 1000 | Cc1c[nH]nc1-n1ccc2c(C3(S(C)(=O)=O)CC3)cc(N3CCOC[C@H]3C)nc21 [Compound 36]
4 | > 1000 | C[C@@H]1COCCN1c1cc(C2(S(C)(=O)=O)CC2)c2ccn(-c3cn[nH]c3C(F)(F)F)c2n1 [Compound 37]
5 | > 1000 | C[C@@H]1COCCN1c1cc(C2(S(C)(=O)=O)CC2)c2ccn(-c3cn[nH]c3)c2n1 [Compound 38]
6 | > 10000 | COc1cc(-c2cc(N3CCOC[C@H]3C)nc3c2ccn3-c2cc[nH]n2)ccn1 [Compound 39]
7 | > 10000 | C[C@@H]1COCCN1c1cc(-c2cccs2)c2ccn(-c3cc[nH]n3)c2n1 [Compound 41]
8 | 32 | C[C@@H]1COCCN1c1cc(I)c2cnn(-c3ccn[nH]3)c2n1 [Compound 42]
9 | 27 | C[C@@H]1COCCN1c1cc(S(C)(=O)=O)c2cnn(-c3cc[nH]n3)c2n1 [Compound 44]
10 | 5 | C[C@@H]1COCCN1c1cc(S(=O)(=O)C2CC2)c2cnn(-c3cc[nH]n3)c2n1 [Compound 45]
11 | 5 | C[C@@H]1COCCN1c1cc(-c2ccccc2F)c2cnn(-c3ccn[nH]3)c2n1 [Compound 48]
12 | 11 | C[C@@H]1COCCN1c1cc(C(C)(C#N)C2COC2)c2cnn(-c3cc[nH]n3)c2n1 (stereo partly drawn) [Compound 49]
13 | 116 | C[C@@H]1COCCN1c1cc(S(=O)(=O)c2ccccc2)c2cnn(-c3cc[nH]n3)c2n1 [Compound 50]
14 | 141 | COc1cc(N2CCOC[C@H]2C)nc2c1cnn2-c1cc[nH]n1 [Compound 51]
15 | 8 | C[C@@H]1COCCN1c1cc(N(C)S(C)(=O)=O)c2cnn(-c3cc[nH]n3)c2n1 [Compound 52]
16 | 9 | C[C@@H]1COCCN1c1cc(N2CCCCS2(=O)=O)c2cnn(-c3cc[nH]n3)c2n1 [Compound 53]
17 | 23 | C[C@@H]1COCCN1c1cc(N2CCCS2(=O)=O)c2cnn(-c3cc[nH]n3)c2n1 [Compound 54]
18 | 10 | C[C@@H]1COCCN1c1cc(C2(O)CCC(C)(C#N)CC2)c2cnn(-c3cc[nH]n3)c2n1 (stereo partly drawn) [Compound 59]
19 | 2 | C[C@@H]1COCCN1c1cc(C2(O)CCC3(CC2)CSC3)c2cnn(-c3cc[nH]n3)c2n1 [Compound 61]
20 | 11 | C[C@@H]1COCCN1c1cc(C(C)(C)O)c2cnn(-c3ccccn3)c2n1 [Compound 63]
21 | 92 | Cc1ccnc(-n2ncc3c(C(C)(C)O)cc(N4CCOC[C@H]4C)nc32)c1 [Compound 64]
22 | 104 | C[C@@H]1COCCN1c1cc(C(C)(C)O)c2cnn(-c3cccc(N)n3)c2n1 [Compound 65]
23 | 198 | C[C@@H]1COCCN1c1cc(C(C)(C)O)c2cnn(-c3cccnn3)c2n1 [Compound 67]

Row | IC50 [nM] | Compound
24 | 1340 | C[C@@H]1COCCN1c1cc(C(C)(C)C#N)c2cnn(-c3n[nH]cc3F)c2n1 [Compound 68]
25 | 554 | C[C@@H]1COCCN1c1nc2c(cnn2-c2cc[nH]n2)c(C(C)(C)C#N)c1Cl [Compound 69]
26 | < 5 | C=Cc1nn(-c2cc[nH]n2)c2nc(N3CCOC[C@H]3C)cc(C(C)(C)C#N)c12 [Compound 71]
27 | 94 | C[C@@H]1COCCN1c1cc(-c2nncs2)c2cnn(-c3cc[nH]n3)c2n1 [Compound 72]
28 | 3 | C[C@@H]1COCCN1c1cc(C2(C#N)CCOCC2)c2cnn(-c3cc[nH]n3)c2n1 [Compound 73]
29 | 8 | C[C@@H]1COCCN1c1cc(C2(C#N)CCSCC2)c2cnn(-c3cc[nH]n3)c2n1 [Compound 74]
30 | 29 | C[C@@H]1COCCN1c1cc(C2(C#N)CC[S+]([O-])CC2)c2cnn(-c3cc[nH]n3)c2n1 (stereo partly drawn) [Compound 75]
31 | 36 | C[C@@H]1COCCN1c1cc(C2(C#N)CCS(=O)(=O)CC2)c2cnn(-c3cc[nH]n3)c2n1 [Compound 76]
32 | 5 | C[C@@H]1COCCN1c1cc(C2(C(N)=O)CCCCC2)c2cnn(-c3cc[nH]n3)c2n1 [Compound 77]
33 | 24 | C[C@@H]1COCCN1c1cc(C2(CN)CCCCC2)c2cnn(-c3cc[nH]n3)c2n1 [Compound 78]
34 | 30 | C[C@@H]1COCCN1c1cc(C2(C#N)CN(C(=O)OC(C)(C)C)C2)c2cnn(-c3cc[nH]n3)c2n1 [Compound 79]
35 | 6 | C[C@@H]1COCCN1c1cc(C2(C#N)CCN(C(=O)OC(C)(C)C)C2)c2cnn(-c3cc[nH]n3)c2n1 (stereo partly drawn) [Compound 80]
36 | 8 | C[C@@H]1COCCN1c1cc(C2(C#N)CCN(C(=O)OC(C)(C)C)CC2)c2cnn(-c3cc[nH]n3)c2n1 [Compound 81]
37 | 17 | C[C@@H]1COCCN1c1cc(C2(C#N)CNC2)c2cnn(-c3cc[nH]n3)c2n1 [Compound 82]
38 | 22 | C[C@@H]1COCCN1c1cc(C2(C#N)CCNCC2)c2cnn(-c3cc[nH]n3)c2n1 [Compound 83]
39 | 9 | C[C@@H]1COCCN1c1cc(C2(C#N)CCNC2)c2cnn(-c3cc[nH]n3)c2n1 (stereo partly drawn) [Compound 84]
40 | < 5 | Cc1cc(-n2ncc3c(C(C)(C)C#N)cc(N4CCOC[C@H]4C)nc32)[nH]n1 [Compound 86]
41 | 10 | C[C@@H]1COCCN1c1cc(N2CCNC(=O)C2)c2cnn(-c3ccn[nH]3)c2n1 [Compound 87]
42 | 31 | C[C@@H]1COCCN1c1cc(-c2ccc(S(C)(=O)=O)cc2)c2cnn(-c3ccn[nH]3)c2n1 [Compound 89]
43 | 165 | C[C@@H]1COCCN1c1cc(C(C)(C)C#N)c2cnn(-c3ncc[nH]3)c2n1 [Compound 90]
44 | < 5 | C[C@@H]1COCCN1c1cc(-c2ccccc2F)c2cnn(-c3ccn[nH]3)c2n1 [Compound 91]
45 | 8 | C[C@@H]1COCCN1c1cc(-c2cccc(S(C)(=O)=O)c2)c2cnn(-c3ccn[nH]3)c2n1 [Compound 92]

Row | Compound | IC50 [nM]
46 | C[C@@H]1COCCN1c1cc(CC#N)c2cnn(-c3cc[nH]n3)c2n1 [Compound 32] | 54
47 | C[C@@H]1COCCN1c1cc(C2(O)CCN(C)CC2)c2cnn(-c3cc[nH]n3)c2n1 [Compound 60] | 37

test system: ATR kinase (CHK1 phosphorylation at Ser345) in HeLa S3 cells; test: ATR assay in HeLa S3 cells (CHK1 p-Ser345 AlphaScreen SureFire, gemcitabine); assay type: cell-based; settings: Homo sapiens, HeLa S3, HeLa S3 whole cell assay, 3.5 to 4 hours; also: gemcitabine 1.5 µM
Protocol: Media was then replaced by 20 μL per well Opti-MEM no phenol red and 5 μL of serial diluted compounds were added to the assay plate for a final DMSO concentration of 0.5%. […] The plate was incubated at 37° C., 1-5% CO2 for 3.5 to 4 hours.

Row | IC50 [nM] | Compound
48 | 0.9 | C[C@@H]1COCCN1c1cc([C@@]2(O)C[C@H]3CC[C@@H](C2)O3)c2cnn(-c3cc[nH]n3)c2n1 (stereo in doubt) [Compound 121]
49 | 0.5 | C[C@@H]1COCCN1c1cc(C2(O)CCN(c3cccc(F)c3)CC2)c2cnn(-c3cc[nH]n3)c2n1 [Compound 93]
50 | 1.9 | C[C@@H]1COCCN1c1cc(C2(O)CCN(c3ccc(Cl)cc3)CC2)c2cnn(-c3cc[nH]n3)c2n1 [Compound 94]
51 | 2 | C[C@@H]1COCCN1c1cc(C2(O)CCN(c3ccc(C#N)cc3)CC2)c2cnn(-c3cc[nH]n3)c2n1 [Compound 95]
52 | 20 | C[C@@H]1COCCN1c1cc(C2(O)CCN(c3ncccc3C(F)(F)F)CC2)c2cnn(-c3cc[nH]n3)c2n1 [Compound 96]
53 | 0.9 | C[C@@H]1COCCN1c1cc([C@]2(O)CC[C@H](c3ccccc3)CC2)c2cnn(-c3cc[nH]n3)c2n1 [Compound 97]
54 | 1.2 | C[C@@H]1COCCN1c1cc([C@]2(O)CC[C@@H](c3ccccc3)CC2)c2cnn(-c3cc[nH]n3)c2n1 [Compound 98]
55 | 1 | COC1CCC(O)(c2cc(N3CCOC[C@H]3C)nc3c2cnn3-c2cc[nH]n2)CC1 (stereo partly drawn) [Compound 101]
56 | 0.9 | COCC1CCC(O)(c2cc(N3CCOC[C@H]3C)nc3c2cnn3-c2cc[nH]n2)CC1 (stereo partly drawn) [Compound 102]
57 | 1.7 | C[C@@H]1COCCN1c1cc(C2(O)CCC(C#N)CC2)c2cnn(-c3cc[nH]n3)c2n1 (stereo partly drawn) [Compound 103]
58 | 2.4 | C[C@@H]1COCCN1c1cc([C@]2(O)CCC[C@H](C(F)(F)F)C2)c2cnn(-c3cc[nH]n3)c2n1 [Compound 104]
59 | 1.1 | C[C@@H]1COCCN1c1cc(C2(O)CCC3(CC2)COC3)c2cnn(-c3cc[nH]n3)c2n1 [Compound 105]
60 | 3.3 | C[C@@H]1COCCN1c1cc([C@]2(O)CC[C@@](C)(C#N)CC2)c2cnn(-c3cc[nH]n3)c2n1 [Compound 106]
61 | 2 | C[C@@H]1COCCN1c1cc(C2(O)CCOC3(CCC3)C2)c2cnn(-c3cc[nH]n3)c2n1 (stereo partly drawn) [Compound 107]
62 | 0.7 | C[C@@H]1COCCN1c1cc(C2(O)CCC3(CCOCC3)CC2)c2cnn(-c3cc[nH]n3)c2n1 [Compound 110]
63 | 2.4 | C[C@@H]1COCCN1c1cc(C2(O)CCCOCC2)c2cnn(-c3cc[nH]n3)c2n1 (stereo partly drawn) [Compound 111]
64 | 0.8 | C[C@@H]1COCCN1c1cc([C@]2(O)CC[C@@]3(CCCO3)CC2)c2cnn(-c3cc[nH]n3)c2n1 [Compound 112]
65 | 2.1 | C[C@@H]1COCCN1c1cc([C@]2(O)CC[C@]3(CCCO3)CC2)c2cnn(-c3cc[nH]n3)c2n1 [Compound 113]
66 | 0.8 | C[C@@H]1COCCN1c1cc([C@]2(O)CC[C@H](C(F)(F)F)CC2)c2cnn(-c3cc[nH]n3)c2n1 [Compound 114]
67 | 1.2 | C[C@@H]1COCCN1c1cc(C2(O)CCN(c3ccc(F)cc3)CC2)c2cnn(-c3cc[nH]n3)c2n1 [Compound 116]

Row | Compound | IC50 [nM]
68 | C[C@@H]1COCCN1c1cc(C2(O)CCN(CC(F)F)CC2)c2cnn(-c3cc[nH]n3)c2n1 [Compound 108] | 1.3
69 | C[C@@H]1COCCN1c1cc(C2(O)CCN(C(C)(C)C)CC2)c2cnn(-c3cc[nH]n3)c2n1 [Compound 109] | 17
70 | C[C@@H]1COCCN1c1cc(C2(O)C3CCC2CN(C)C3)c2cnn(-c3cc[nH]n3)c2n1 (stereo partly drawn) [Compound 117] | 38
71 | CC(C)N1CCC(O)(c2cc(N3CCOC[C@H]3C)nc3c2cnn3-c2cc[nH]n2)CC1 [Compound 118] | 6.4
72 | C[C@@H]1COCCN1c1cc(C2(O)CC(C)(C)N(C)C(C)(C)C2)c2cnn(-c3cc[nH]n3)c2n1 [Compound 119] | 14
